This assay has as its target T1, human Npt2a (Homo sapiens, UniProt Q06495).
T1 construct: expressed in transfected cells
T1 sequence (Q06495 1-639): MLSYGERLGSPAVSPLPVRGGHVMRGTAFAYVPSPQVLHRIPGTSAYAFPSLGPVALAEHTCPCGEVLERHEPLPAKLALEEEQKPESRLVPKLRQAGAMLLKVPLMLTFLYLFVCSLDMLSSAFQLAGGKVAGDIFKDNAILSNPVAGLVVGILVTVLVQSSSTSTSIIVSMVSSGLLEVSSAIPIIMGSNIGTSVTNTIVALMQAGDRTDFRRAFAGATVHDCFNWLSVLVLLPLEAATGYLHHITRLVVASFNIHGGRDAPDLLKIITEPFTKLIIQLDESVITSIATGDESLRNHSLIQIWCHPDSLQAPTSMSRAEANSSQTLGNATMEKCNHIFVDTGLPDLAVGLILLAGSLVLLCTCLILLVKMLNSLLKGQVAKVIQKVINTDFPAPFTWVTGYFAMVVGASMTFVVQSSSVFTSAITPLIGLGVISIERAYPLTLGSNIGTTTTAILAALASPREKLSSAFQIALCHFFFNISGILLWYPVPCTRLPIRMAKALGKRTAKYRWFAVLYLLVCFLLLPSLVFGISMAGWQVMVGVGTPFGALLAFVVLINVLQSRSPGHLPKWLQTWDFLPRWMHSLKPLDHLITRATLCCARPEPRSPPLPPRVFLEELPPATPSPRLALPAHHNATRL
As to the kind of experiment: Npt2a activity cell based assay, membrane potential dye, CHO T-REx hNpt2a cells. As to conditions: doxycycline-induced, depolarization by sodium phosphate influx, average or median values if tested more than once. In a few lines:
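Cells were doxycycline-induced CHO T-REx hNpt2a, dye-loaded and pretreated 5 min at RT with 1 nM–50 μM compound in Na-free pH 7.4 buffer. IC50 was fit to the post/pre-trigger fluorescence ratio.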
Regarding `Cc1cc(C)n(-c2cc(Nc3[nH]nc(-c4ccccc4)c3C)ncn2)n1` [Example 10, 6-(3,5-dimethyl-1H-pyrazol-1-yl)-N-(4-methyl-3-phenyl-1H-pyrazol-5-yl)pyrimidin-4-amine], the IC50 was found to be 0.0337 µM.

`Cc1nn(-c2cc(Nc3n[nH]c(-c4ccccc4)c3C)ncn2)c(C)c1Cl` [Example 11, 6-(4-chloro-3,5-dimethyl-1H-pyrazol-1-yl)-N-(4-methyl-5-phenyl-1H-pyrazol-3-yl)pyrimidin-4-amine] returned an IC50 of 0.0503 µM.

`CCc1c(-c2ccc(F)cc2)nn(C)c1Nc1cc(-n2nc(C)cc2C)ncn1` [Example 12, 6-(3,5-dimethyl-1H-pyrazol-1-yl)-N-[4-ethyl-3-(4-fluorophenyl)-1-methyl-1H-pyrazol-5-yl]pyrimidin-4-amine]: the IC50 came to 0.05 µM.

As to `CCc1c(-c2ccc(F)cc2)n[nH]c1Nc1cc(-n2nc(C)cc2C)ncn1` [Example 13, 6-(3,5-dimethyl-1H-pyrazol-1-yl)-N-[4-ethyl-3-(4-fluorophenyl)-1H-pyrazol-5-yl]pyrimidin-4-amine], it took 0.0619 µM to reach half-maximal inhibition (IC50). This IC50 and that of the compound before are within 1.5-fold of each other.

As for `Cc1cc(C)n(-c2cc(Nc3[nH]nc(-c4ccc(F)cc4)c3Cl)ncn2)n1` [Example 14, N-[4-chloro-3-(4-fluorophenyl)-1H-pyrazol-5-yl]-6-(3,5-dimethyl-1H-pyrazol-1-yl)pyrimidin-4-amine], the IC50 worked out at 0.07 µM.

Regarding `CCOC(=O)c1c(C)nn(-c2cc(Nc3[nH]nc(-c4ccc(F)cc4)c3C3CC3)ncn2)c1C` [Example 15, ethyl 1-(6-{[4-cyclopropyl-3-(4-fluorophenyl)-1H-pyrazol-5-yl]amino}pyrimidin-4-yl)-3,5-dimethyl-1H-pyrazole-4-carboxylate], half-maximal inhibition (IC50) required 0.072 µM. This IC50 and that of the compound before are within 1.5-fold of each other.

The compound `CCOC(=O)c1c(C)nn(-c2cc(Nc3n[nH]c(-c4ccccc4)c3C)ncn2)c1C` [Example 16, ethyl 3,5-dimethyl-1-{6-[(4-methyl-5-phenyl-1H-pyrazol-3-yl)amino]pyrimidin-4-yl}-1H-pyrazole-4-carboxylate] yielded an IC50 of 0.081 µM. This IC50 and that of the compound before are within 1.5-fold of each other.

In the case of `Cc1cc(C)n(-c2cc(Nc3n[nH]c(-c4ccc(F)cc4)c3C)ncn2)n1` [Example 17, 6-(3,5-dimethyl-1H-pyrazol-1-yl)-N-[5-(4-fluorophenyl)-4-methyl-1H-pyrazol-3-yl]pyrimidin-4-amine], the IC50 came out at 0.1 µM.

In turn, `CCc1c(Nc2cc(-n3cc4c(n3)CCCC4)ncn2)n[nH]c1-c1ccc(F)cc1` [Example 18, N-[4-ethyl-5-(4-fluorophenyl)-1H-pyrazol-3-yl]-6-(4,5,6,7-tetrahydro-2H-indazol-2-yl)pyrimidin-4-amine] returned a half-maximal inhibitory concentration (IC50) of 0.11 µM.

Take `CCc1c(Nc2cc(-n3nc(C)c4ccccc43)ncn2)n[nH]c1-c1ccc(F)cc1` [Example 19, N-[4-ethyl-5-(4-fluorophenyl)-1H-pyrazol-3-yl]-6-(3-methyl-1H-indazol-1-yl)pyrimidin-4-amine]: half-maximal inhibition (IC50) was put at 0.11 µM.

Consider `CCc1c(Nc2cc(-n3cc4c(n3)CCC4)ncn2)n[nH]c1-c1ccc(F)cc1` [Example 20, 6-(5,6-dihydrocyclopenta[c]pyrazol-2(4H)-yl)-N-[4-ethyl-5-(4-fluorophenyl)-1H-pyrazol-3-yl]pyrimidin-4-amine], for which the IC50 was 0.12 µM.

For the compound `CCc1c(Nc2cc(-n3nc(C)cc3C)ncn2)n[nH]c1-c1ccc(Cl)cc1` [Example 21, N-[5-(4-chlorophenyl)-4-ethyl-1H-pyrazol-3-yl]-6-(3,5-dimethyl-1H-pyrazol-1-yl)pyrimidin-4-amine], the IC50 stood at 0.14 µM.

Compound `CCc1c(Nc2cc(-n3ncc4c3CCCC4)ncn2)n[nH]c1-c1ccc(F)cc1` [Example 22, N-[4-ethyl-5-(4-fluorophenyl)-1H-pyrazol-3-yl]-6-(4,5,6,7-tetrahydro-1H-indazol-1-yl)pyrimidin-4-amine] displayed an IC50 of 0.15 µM.

The compound `Cc1cc(C)n(-c2cc(Nc3nn(C)c(-c4ccc(F)cc4)c3C#N)ncn2)n1` [Example 23, 3-{[6-(3,5-dimethyl-1H-pyrazol-1-yl)pyrimidin-4-yl]amino}-5-(4-fluorophenyl)-1-methyl-1H-pyrazole-4-carbonitrile] had an IC50 of 0.315 µM.

For the compound `Cc1cc(C)n(-c2cc(Nc3c(C#N)c(-c4ccc(F)cc4)nn3C)ncn2)n1` [Example 24, 5-{[6-(3,5-dimethyl-1H-pyrazol-1-yl)pyrimidin-4-yl]amino}-3-(4-fluorophenyl)-1-methyl-1H-pyrazole-4-carbonitrile], the IC50 was 0.31 µM.

`CCc1c(Nc2cc(-n3nc(C)c(C)c3O)ncn2)nn(C)c1-c1ccc(F)cc1` [Example 25, 1-(6-{[4-ethyl-5-(4-fluorophenyl)-1-methyl-1H-pyrazol-3-yl]amino}pyrimidin-4-yl)-3,4-dimethyl-1H-pyrazol-5-ol] registered a half-maximal inhibitory concentration (IC50) of 1.07 µM.

On to `CCc1c(Nc2cc(-n3cc4c(n3)CN(C(=O)OC(C)(C)C)CC4)ncn2)n[nH]c1-c1ccc(F)cc1` [Example 26, tert-butyl 2-(6-{[4-ethyl-5-(4-fluorophenyl)-1H-pyrazol-3-yl]amino}pyrimidin-4-yl)-2,4,5,7-tetrahydro-6H-pyrazolo[3,4-c]pyridine-6-carboxylate], for which the half-inhibitory concentration (IC50) stood at 0.46 µM.

In turn, `CCc1c(Nc2cc(-n3ncc4c3CCC4)ncn2)n[nH]c1-c1ccc(F)cc1` [Example 27, 6-(5,6-dihydrocyclopenta[c]pyrazol-1 (4H)-yl)-N-[4-ethyl-5-(4-fluorophenyl)-1H-pyrazol-3-yl]pyrimidin-4-amine] gave an IC50 of 0.46 µM. In other words, the sub-micromolar range.

As for `CCc1c(Nc2cc(-n3nc(C)cc3C)ncn2)n[nH]c1C1CCCCC1` [Example 28, N-(5-cyclohexyl-4-ethyl-1H-pyrazol-3-yl)-6-(3,5-dimethyl-1H-pyrazol-1-yl)pyrimidin-4-amine], the 50% inhibitory concentration (IC50) stood at 0.49 µM.

`CCc1c(Nc2cc(-n3nc4c(c3O)CCCC4)ncn2)nn(C)c1-c1ccc(F)cc1` [Example 29, 2-(6-{[4-ethyl-5-(4-fluorophenyl)-1-methyl-1H-pyrazol-3-yl]amino}pyrimidin-4-yl)-4,5,6,7-tetrahydro-2H-indazol-3-ol]: the IC50 turned out to be 1.42 µM.

Turning to `CCc1c(Nc2cc(-n3nc4c(c3O)CCCC4)ncn2)n[nH]c1-c1ccc(F)cc1` [Example 30, 2-(6-{[4-ethyl-5-(4-fluorophenyl)-1H-pyrazol-3-yl]amino}pyrimidin-4-yl)-4,5,6,7-tetrahydro-2H-indazol-3-ol], the IC50 came to 0.62 µM.

`CCc1c(Nc2cc(-n3nc(C)cc3C)ncn2)nn(CCOCc2ccccc2)c1-c1ccc(F)cc1` [Example 31, N-{1-[2-(benzyloxy)ethyl]-4-ethyl-5-(4-fluorophenyl)-1H-pyrazol-3-yl}-6-(3,5-dimethyl-1H-pyrazol-1-yl)pyrimidin-4-amine] had an IC50 of 0.67 µM.

Consider `CCc1c(-c2ccc(F)cc2)nn(CCOCc2ccccc2)c1Nc1cc(-n2nc(C)cc2C)ncn1` [Example 32, N-{1-[2-(benzyloxy)ethyl]-4-ethyl-3-(4-fluorophenyl)-1H-pyrazol-5-yl}-6-(3,5-dimethyl-1H-pyrazol-1-yl)pyrimidin-4-amine], for which the half-inhibitory concentration (IC50) amounted to 0.69 µM.

In turn, `CCc1c(Nc2cc(-n3ncc4c3CCN(C(=O)OC(C)(C)C)C4)ncn2)n[nH]c1-c1ccc(F)cc1` [Example 33, tert-butyl 1-(6-{[4-ethyl-5-(4-fluorophenyl)-1H-pyrazol-3-yl]amino}pyrimidin-4-yl)-1,4,6,7-tetrahydro-5H-pyrazolo[4,3-c]pyridine-5-carboxylate] came in with an IC50 of 1 µM. The IC50 values of the last two compounds are within 1.5-fold of each other.

By IC50 is commonly meant the concentration needed to halve the response being measured. Low readings indicate higher potency, high ones lower potency.

(Values after patent US11208400B2, “Substituted 6-(1H-pyrazol-1-yl)pyrimidin-4-amine derivatives and uses thereof” (Bayer Aktiengesellschaft, priority 2016, dated 2021).)
